Test system: Chinese hamster ovary (CHO) cells
Test: In vitro PDT: survival of CHO cells incubated with HpD after irradiation
Format: cell-based
Method: In vitro work carried out using Chinese hamster ovary (CHO) cells incubated with […] HpD for 24 hours. Irradiation was centered on 630±12 nm for three light sources, namely a high intensity continuous wave (CW) lamp (non-laser light source in accordance with the present invention using 300 W Xenon lamp), secondly a continuous wave 20 W argon ion pumped dye laser and pulsed 10 W copper vapour pumped dye laser, all with fibre delivery. Light doses ranged from 0 to 2.5 J/cm^2 with light fluences ranging from 20 to 200 mW/cm^2. A light only control was taken at 275 mW/cm^2 for energy doses of 0 to 100 J/cm^2. Following irradiation, cells were plated out, stained and counted for survival.
FIGS. 2a, 2b, 2c show photosensitiser (HpD) absorption spectrum, cell kill efficacy spectrum and overlapping HpD/lamp spectra. PBS refers to phosphate buffered saline; S.F. means survival fraction.
FIGS. 3a, 3b show cell survival curves obtained at 20 & 50 mW/cm^2 respectively with highest kill efficiency achieved by the argon ion laser, followed by the copper vapour laser. The lamp kill efficiency of the light source in accordance with the present invention, though similar to the lasers (approx 70%) would be increased by reducing its emission bandwidth from 30 nm.

haematoporhyrin derivative [HpD]
lamp kill efficiency (cell survival curves) (CHO cells, 10 pg/ml HpD for 24 hours, 300 W Xenon lamp at 630±12 nm, 20 & 50 mW/cm^2, similar to the lasers): approx 70%
photo-inactivation of cancerous CHO cells in vitro (HpD with impinging visible light at 630±12 nm from the non-laser light source): proven photo-inactivation

Source: patent US6461866B1, “In vitro photodynamic therapy using non laser light” (Photo Therapeutics Limited, priority 1992, dated 2002)
